Measurements reported in patent US20240325529A1, “MEDICAMENT FOR TREATMENT AND/OR PREVENTION OF CANCER” (TORAY INDUSTRIES, INC., priority 2021, published 2024).

Key:
[1] = system: Basal-like subtype of breast cancer (BLBC); conditions: added to docetaxel after epirubicin and cyclophosphamide (EC treatment); cited from earlier work
[2] = target: T1, CAPRIN-1 on cell membrane surfaces of human cancer cells (Homo sapiens, UniProt Q14444); test: Flow cytometry reactivity with cell membrane surfaces of human cancer cells expressing CAPRIN-1; assay type: binding; conditions: human cancer cells: BT-474, HT-29, QG56, H1650, NCI-N87, HEC-1-A, 22Rv1, Panc10.5, Hep3B, SKOV3, Caki-2, U-87MG, T24, OE33, OCI-AML5, Ramos, TGBC 14TKB, HT-1080, G-361
T1 construct: endogenous in cells; host or cells: human cancer cell lines (BT-474, HT-29, QG56, H1650, NCI-N87, HEC-1-A, 22Rv1, Panc10.5, Hep3B, SKOV3, Caki-2, U-87MG, T24, OE33, OCI-AML5, Ramos, TGBC 14TKB, HT-1080, G-361)
T1 sequence (Q14444 1-709): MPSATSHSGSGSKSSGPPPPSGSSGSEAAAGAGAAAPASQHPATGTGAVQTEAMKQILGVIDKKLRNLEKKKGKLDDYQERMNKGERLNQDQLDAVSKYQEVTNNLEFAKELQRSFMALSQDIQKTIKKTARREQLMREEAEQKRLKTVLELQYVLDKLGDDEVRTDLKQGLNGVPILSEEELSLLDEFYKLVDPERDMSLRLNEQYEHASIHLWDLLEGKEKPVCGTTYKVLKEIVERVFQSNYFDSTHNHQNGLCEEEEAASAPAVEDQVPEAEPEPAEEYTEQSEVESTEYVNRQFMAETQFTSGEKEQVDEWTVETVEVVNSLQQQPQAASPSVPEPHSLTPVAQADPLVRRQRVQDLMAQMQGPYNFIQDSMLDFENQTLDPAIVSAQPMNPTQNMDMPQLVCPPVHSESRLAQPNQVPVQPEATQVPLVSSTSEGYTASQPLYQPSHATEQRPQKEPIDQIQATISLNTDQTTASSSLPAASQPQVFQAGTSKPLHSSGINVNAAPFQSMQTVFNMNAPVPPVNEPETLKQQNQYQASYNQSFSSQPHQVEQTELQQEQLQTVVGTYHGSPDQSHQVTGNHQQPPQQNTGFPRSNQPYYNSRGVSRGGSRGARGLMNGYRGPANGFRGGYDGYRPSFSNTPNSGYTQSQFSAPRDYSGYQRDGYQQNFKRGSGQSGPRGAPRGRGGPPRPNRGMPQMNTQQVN
From the text: Reactivity of each monoclonal antibody with human cancer cells confirmed to express CAPRIN-1 protein on cell membrane surfaces was further confirmed by flow cytometry.
The reactivity of the anti-CAPRIN-1 antibody with cancer cells without permeation treatment of cell membranes was examined by flow cytometry to confirm that a portion of CAPRIN-1 was expressed on cell membrane surfaces of cancer cells as shown by Examples given below.

N.N.O=C([O-])C1(C(=O)[O-])CCC1.[Pt+2] [carboplatin]
effectiveness of administering carboplatin [1]: not effective

B1: (ab): monoclonal antibody against CAPRIN-1 described in WO2013/125630, heavy-chain variable region SEQ ID NO: 114, light-chain variable region SEQ ID NO: 115 (antibody, listed as Mus musculus, V domains shown)
VH: GPELVKPGASVKMSCKASGYTFTSYVMHWVKQKPGQGLEWIGYINPYNDGTKYNEKFKGKATLTSDKSSSTAYMELSSLTSEDSAVYYCARRYYYGSSGGYFDVWAQDHVRT
VL: DVQITQSPSYLAASPGETITINCRASKSISKYLAWYQEKPGKTNKLLIYSGSTLQSGIPSRFSGSGSGTDFTLTISSLEPEDFAMYYCQQHNEYPYTFGGGTKLEIKR
reactivity with cell membrane surfaces of cancer cells (fluorescence intensity versus negative control antibody) [2]: reacted strongly
